In patent publication US7183375B2, “Inhibitors for continuous activation for calcineurin” (Agencey of Industrial Science and Technology, priority 2002, dated 2007):
Where a SMILES comes first, the peptide text is derived from it. Where no end group is shown, it is not given here.

Tests used:
[1] = test system: neuronal cells; test: Neuronal cell death induced by glutamic acid (TUNEL staining, TUNEL positive cell count); assay type: cell-based, Wister rat; conditions: peptides of SEQ Nos. 5 and 6 1 μM, FK506 1 μM, ALLM 25 μM; glutamic acid 500 μM; TUNEL at 3, 6, 12 or 24 hours; FIG. 2
Protocol: (§1) After the brain hippocampus from 18 days embryo of Wister rat had been removed, it was treated with PBS containing 0.05% trypsin for 15 minutes at 37° C. After the neuronal cells were suspended with a glass pipet, 1×10^6 cells were cultured in a 3.5 cm diameter culture dish which was previously coated with poly-D-lysine. As the medium, 3 ml Neuro Basal medium (available from Invitrogen, Inc.) complemented with B27 supplement (0.03 ml; available from Invitrogen, Inc.), penicillin (100 units/ml in the final concentration; available from Invitrogen, Inc.) and streptomycin (100 μg/ml in the final concentration; available from Invitrogen, Inc.) was used and the cultivation was carried out in carbon dioxide incubator (5% CO2, 37° C.).
The neuronal cells were cultured in the same manner as in Example 1, and then the above-mentioned peptides of SEQ Nos. 5 and 6 were added in the final concentration of 1 μM in the same manner as in Example 1. The calcineurin inhibitor, FK506 (available from Fujisawa pharmaceutical Co., Ltd.; the final concentration of 1 μM) or calpain inhibitor, ALLM (available from Merck & Co., Inc.; the final concentration of 25 μM) was added as a control. After 2 hours incubation with each reagent, glutamic acid was added in the final concentration of 500 μM, followed by 15 minutes incubation. […] The TUNEL positive cell was counted.

[2] = test system: calcineurin subunit A (CaNA); test: Cleavage of CaNA in cultured neuronal cells after glutamic acid addition (Western blotting); assay type: cell-based, Wister rat; conditions: peptides of SEQ Nos. 5 and 6 at 1 μM; glutamic acid 500 μM, 15 minutes; cells collected at 3 hours and 24 hours; FIG. 1
Protocol: as §1
The peptides of above-mentioned SEQ Nos. 5 and 6 were added in the culture solution with the final concentration of 1 μM 10 days after beginning of culture, and it was incubated in carbon dioxide incubator (5% CO2, 37° C.). Three hours after the addition, glutamic acid was added in the final concentration of 500 μM, and it was incubated for 15 minutes. The culture solution was then exchanged, and it was further cultured. The cells were collected at 3 hours and 24 hours after glutamic acid was added, were disrupted by ultrasonic wave in 1% SDS solution, and the SDS-PAGE buffer was added thereto. […]

[3] = test system: neuronal cell death; conditions: reported in literature (Morioka 1999; Springer 2000); cited from earlier work

Molecule | neuronal cell death induced by glutamic acid [1] | cleavage of calcineurin caused by the addition of glutamic acid [2] | neuronal cell death [3]
CSCC[C@@H](C=O)NC(=O)[C@H](CC(C)C)NC(=O)[C@H](CC(C)C)NC(C)=O [ALLM] (Ac-Leu-Leu-Met-aldehyde) | same degree | – | –
cleavage inhibiting peptide: peptides of SEQ Nos. 5 and 6 added together to the culture solution, 1 μM final concentration (chain 1 RRRRRRRRRRFDGATAAARKEVIRNK; chain 2 RRRRRRRRRRREESESVLTLKGLTPTG; also: mixture of two peptides added together) | suppressive effect | inhibited | –
cyclosporin A | – | – | suppresses neuronal cell death
